# Measurements: the NIST ThermoML archive (doi:10.1016/j.jct.2015.05.024)
# Numbers after ± are expanded uncertainties.
# Assay: xn = mol fraction of the nth substance listed
# Details: 100 kPa, Liquid, Vibrating tube method
smiles,measurement,setting,value
OCCOCCOCCO [triethylene glycol] + O,mass density,"323.15 K, x1 = 0.2988",1088.45 ± 0.14 kg/m3
same,mass density,"323.15 K, x1 = 0.3492",1091.15 ± 0.15 kg/m3
same,mass density,"323.15 K, x1 = 0.3925",1092.88 ± 0.15 kg/m3
same,mass density,"323.15 K, x1 = 0.4502",1094.61 ± 0.16 kg/m3
same,mass density,"323.15 K, x1 = 0.4877",1095.48 ± 0.17 kg/m3
same,mass density,"323.15 K, x1 = 0.5004",1095.75 ± 0.17 kg/m3
same,mass density,"323.15 K, x1 = 0.5739",1097.01 ± 0.19 kg/m3
same,mass density,"323.15 K, x1 = 0.58",1097.09 ± 0.19 kg/m3
same,mass density,"323.15 K, x1 = 0.6465",1097.92 ± 0.2 kg/m3
same,mass density,"323.15 K, x1 = 0.651",1097.96 ± 0.2 kg/m3
same,mass density,"323.15 K, x1 = 0.7008",1098.44 ± 0.21 kg/m3
same,mass density,"323.15 K, x1 = 0.7471",1098.82 ± 0.23 kg/m3
same,mass density,"323.15 K, x1 = 0.7677",1098.97 ± 0.23 kg/m3
same,mass density,"323.15 K, x1 = 0.82",1099.31 ± 0.24 kg/m3
same,mass density,"323.15 K, x1 = 0.8623",1099.56 ± 0.26 kg/m3
same,mass density,"323.15 K, x1 = 0.8792",1099.64 ± 0.27 kg/m3
same,mass density,"323.15 K, x1 = 0.8975",1099.74 ± 0.27 kg/m3
same,mass density,"323.15 K, x1 = 0.9203",1099.85 ± 0.28 kg/m3
same,mass density,"323.15 K, x1 = 0.9514",1100 ± 0.29 kg/m3
same,mass density,"323.15 K, x1 = 0.9692",1100.08 ± 0.3 kg/m3
same,mass density,"323.15 K, x1 = 1",1100.22 ± 0.31 kg/m3
same,mass density,"328.15 K, x1 = 0.0107",996.693 ± 0.22 kg/m3
same,mass density,"328.15 K, x1 = 0.02047",1005.64 ± 0.2 kg/m3
same,mass density,"328.15 K, x1 = 0.03972",1020.67 ± 0.19 kg/m3
same,mass density,"328.15 K, x1 = 0.04979",1027.35 ± 0.16 kg/m3
same,mass density,"328.15 K, x1 = 0.06996",1038.74 ± 0.15 kg/m3
same,mass density,"328.15 K, x1 = 0.09424",1049.58 ± 0.14 kg/m3
same,mass density,"328.15 K, x1 = 0.1481",1065.82 ± 0.13 kg/m3
same,mass density,"328.15 K, x1 = 0.2006",1075.2 ± 0.13 kg/m3
same,mass density,"328.15 K, x1 = 0.2502",1080.82 ± 0.14 kg/m3
same,mass density,"328.15 K, x1 = 0.2988",1084.52 ± 0.14 kg/m3
same,mass density,"328.15 K, x1 = 0.3492",1087.21 ± 0.15 kg/m3
same,mass density,"328.15 K, x1 = 0.3925",1088.93 ± 0.15 kg/m3
same,mass density,"328.15 K, x1 = 0.4502",1090.66 ± 0.16 kg/m3
same,mass density,"328.15 K, x1 = 0.4877",1091.55 ± 0.17 kg/m3
same,mass density,"328.15 K, x1 = 0.5004",1091.81 ± 0.17 kg/m3
same,mass density,"328.15 K, x1 = 0.5739",1093.08 ± 0.18 kg/m3
same,mass density,"328.15 K, x1 = 0.58",1093.16 ± 0.19 kg/m3
same,mass density,"328.15 K, x1 = 0.6465",1093.99 ± 0.2 kg/m3
same,mass density,"328.15 K, x1 = 0.651",1094.04 ± 0.2 kg/m3
same,mass density,"328.15 K, x1 = 0.7008",1094.53 ± 0.21 kg/m3
same,mass density,"328.15 K, x1 = 0.7471",1094.91 ± 0.22 kg/m3
same,mass density,"328.15 K, x1 = 0.7677",1095.06 ± 0.23 kg/m3
same,mass density,"328.15 K, x1 = 0.82",1095.4 ± 0.24 kg/m3
same,mass density,"328.15 K, x1 = 0.8623",1095.64 ± 0.26 kg/m3
same,mass density,"328.15 K, x1 = 0.8792",1095.73 ± 0.26 kg/m3
same,mass density,"328.15 K, x1 = 0.8975",1095.83 ± 0.27 kg/m3
same,mass density,"328.15 K, x1 = 0.9203",1095.94 ± 0.28 kg/m3
same,mass density,"328.15 K, x1 = 0.9514",1096.09 ± 0.29 kg/m3
same,mass density,"328.15 K, x1 = 0.9692",1096.17 ± 0.29 kg/m3
same,mass density,"328.15 K, x1 = 1",1096.3 ± 0.31 kg/m3
same,mass density,"333.15 K, x1 = 0.0107",994.065 ± 0.22 kg/m3
same,mass density,"333.15 K, x1 = 0.02047",1002.89 ± 0.19 kg/m3
same,mass density,"333.15 K, x1 = 0.03972",1017.67 ± 0.18 kg/m3
same,mass density,"333.15 K, x1 = 0.04979",1024.24 ± 0.16 kg/m3
same,mass density,"333.15 K, x1 = 0.06996",1035.42 ± 0.15 kg/m3
same,mass density,"333.15 K, x1 = 0.09424",1046.06 ± 0.14 kg/m3
same,mass density,"333.15 K, x1 = 0.1481",1062.02 ± 0.13 kg/m3
same,mass density,"333.15 K, x1 = 0.2006",1071.28 ± 0.13 kg/m3
same,mass density,"333.15 K, x1 = 0.2502",1076.84 ± 0.14 kg/m3
same,mass density,"333.15 K, x1 = 0.2988",1080.53 ± 0.14 kg/m3
same,mass density,"333.15 K, x1 = 0.3492",1083.23 ± 0.15 kg/m3
same,mass density,"333.15 K, x1 = 0.3925",1084.95 ± 0.15 kg/m3
same,mass density,"333.15 K, x1 = 0.4502",1086.7 ± 0.16 kg/m3
same,mass density,"333.15 K, x1 = 0.4877",1087.58 ± 0.17 kg/m3
same,mass density,"333.15 K, x1 = 0.5004",1087.85 ± 0.17 kg/m3
same,mass density,"333.15 K, x1 = 0.5739",1089.13 ± 0.18 kg/m3
same,mass density,"333.15 K, x1 = 0.58",1089.21 ± 0.18 kg/m3
same,mass density,"333.15 K, x1 = 0.6465",1090.05 ± 0.2 kg/m3
same,mass density,"333.15 K, x1 = 0.651",1090.1 ± 0.2 kg/m3
same,mass density,"333.15 K, x1 = 0.7008",1090.59 ± 0.21 kg/m3
same,mass density,"333.15 K, x1 = 0.7471",1090.97 ± 0.22 kg/m3
same,mass density,"333.15 K, x1 = 0.7677",1091.13 ± 0.23 kg/m3
same,mass density,"333.15 K, x1 = 0.82",1091.47 ± 0.24 kg/m3
same,mass density,"333.15 K, x1 = 0.8623",1091.71 ± 0.25 kg/m3
same,mass density,"333.15 K, x1 = 0.8792",1091.81 ± 0.26 kg/m3
same,mass density,"333.15 K, x1 = 0.8975",1091.9 ± 0.27 kg/m3
same,mass density,"333.15 K, x1 = 0.9203",1092.01 ± 0.27 kg/m3
same,mass density,"333.15 K, x1 = 0.9514",1092.16 ± 0.28 kg/m3
same,mass density,"333.15 K, x1 = 0.9692",1092.24 ± 0.29 kg/m3
same,mass density,"333.15 K, x1 = 1",1092.38 ± 0.3 kg/m3
